From patent publication US8697715B2, “Serine/threonine kinase inhibitors” (Array BioPharma Inc., priority 2012, dated 2014) come the findings set out here.

The assay deals with PMA-stimulated P90RSK(Ser380) phosphorylation in HepG2 cells. As to the kind of experiment: Cellular P90RSK(Ser380) Phosphorylation Assay. It counts as cell-based. The conditions noted are these: Homo sapiens, read-out: Biological Example 2 IC50 (nM), 1.5 hours compound incubation, PMA 100 ng/mL 30 minutes, normalized to GAPDH, single assay or mean of multiple assays. As for the experimental part: Inhibition of PMA-stimulated P90RSK(Ser380) phosphorylation was determined by the following in vitro cellular mechanistic assay, which comprises incubating cells with a compound for 1.5 hours and quantifying fluorescent pP90RSK(Ser380) signal on fixed cells and normalizing to GAPDH signal.
HepG2 cells were obtained from ATCC and grown in DMEM supplemented with 10% fetal bovine serum. Cells were plated in 96-well plates at 35,000 cells/well and allowed to attach overnight at 37° C./5% CO2. Diluted compounds were then added at a final concentration of 0.5% DMSO. After 1.5 hours compound incubation, cells were stimulated with the addition of phorbol 12-myristate 13-acetate (“PMA”) at a final concentration of 100 ng/mL; the PMA stimulation was a 30-minute incubation at 37° C./5% CO2. After the 30-minute PMA stimulation, cells were washed with phosphate buffered saline (“PBS”) and fixed in 3.7% formaldehyde in PBS at room temperature for 15-20 minutes. This was followed by another wash in PBS and then permeabilization in 100% MeOH at room temperature for 10-15 minutes. Following the permeabilization incubation, cells were washed in PBS/0.05% Tween-20, followed by a block in Odyssey blocking buffer (LI-COR Biosciences) for at least 1 hour. […] Both secondary antibodies were used at a 1:1000 dilution. Cells were then washed and analyzed for fluorescence at both wavelengths using the Odyssey Infrared Imaging System (LI-COR Biosciences). Phosphorylated P90RSK(Ser380) signal was normalized to GAPDH signal.
For `NC[C@H](c1ccc(Cl)c(F)c1)n1ccc(-c2ccnc(NC3CCOCC3)n2)cc1=O` [Example 305, (S)-1-(2-amino-1-(4-chloro-3-fluorophenyl)ethyl)-4-(2-((tetrahydro-2H-pyran-4-yl)amino)pyrimidin-4-yl)pyridin-2(1H)-one], the IC50 was 53 nM.

`O=c1cc(-c2ccnc(NC3CCOCC3)n2)ccn1[C@H](COP(=O)(O)O)c1ccc(Cl)c(F)c1` [Example α, (S)-2-(4-chloro-3-fluorophenyl)-2-(2-oxo-4-(2-((tetrahydro-2H-pyran-4-yl)amino)pyrimidin-4-yl)pyridin-1(2H)-yl)ethyl dihydrogen phosphate]: the IC50 amounted to 955 nM.

For `O=c1cc(-c2ccnc(NC3CCOCC3)n2)ccn1[C@H](COCOP(=O)(O)O)c1ccc(Cl)c(F)c1` [Example β, (S)-(2-(4-chloro-3-fluorophenyl)-2-(2-oxo-4-(2-((tetrahydro-2H-pyran-4-yl)amino)pyrimidin-4-yl)pyridin-1(2H)-yl)ethoxy)methyl dihydrogen phosphate], the IC50 amounted to 99.6 nM.
